{
  "source": "patent US3948898A",
  "about": "“1,3-Dioxo-2-aminoalkyl-4,4-dimethyl-isoquinolines and salts thereof” (Boehringer Ingelheim GmbH, priority 1973, dated 1976)",
  "key": {"[1]": {"test": "hypotensive activity in anesthetized mongrel dogs (i.v.)", "assay_type": "in vivo", "experimental": "The test compounds were injected intravenously into the vena saphena in aqueous solution. The arterial bloodpressure was measured before and after administration in the arteria femoralis by means of a […]-pressure transducer and registered on a Grass-polygraph."}, "[2]": {"test": "acute toxicity in mice after oral application (LD50)", "details": "mouse, in vivo, p.o., observation time 14 days", "experimental": "The acute toxicity of the compounds was tested in mice (observation time: 14 days) after oral application. The LD50 was calculated from the percentage of the animals which died within the observation time after application of varying doses [see J. Pharmacol. exper. Therap."}},
  "note": "Counter-ions that a name gives are not always drawn.",
  "data": [
    {"molecule": "COc1ccccc1N1CCN(CCN2C(=O)c3ccccc3C(C)(C)C2=O)CC1.Cl.Cl", "note": "[A, 1-[4,4-dimethyl-1,3-dioxo-(2H,4H)-isoquinolin-2-yl]-2-[4-(2-methoxy-phenyl)-piperazin-1-yl]-ethane dihydrochloride]", "values": [
      {"measurement": "Decrease of bloodpressure diast.", "setting": "[1]; 0.05 mg/kg i.v.", "result": -31, "unit": "mm Hg"},
      {"measurement": "Decrease of bloodpressure syst.", "setting": "[1]; 0.05 mg/kg i.v.", "result": -27, "unit": "mm Hg"},
      {"measurement": "Duration of activity", "setting": "[1]; 0.05 mg/kg i.v.", "result": 53, "unit": "min"},
      {"measurement": "Decrease of bloodpressure diast.", "setting": "[1]; 0.1 mg/kg i.v.", "result": -34, "unit": "mm Hg"},
      {"measurement": "Decrease of bloodpressure syst.", "setting": "[1]; 0.1 mg/kg i.v.", "result": -33, "unit": "mm Hg"},
      {"measurement": "Duration of activity", "setting": "[1]; 0.1 mg/kg i.v.", "result": 47, "unit": "min"},
      {"measurement": "LD50 at 336 h", "setting": "[2]", "result": 850, "unit": "mg/kg"}
    ]},
    {"molecule": "COc1ccc2c(c1)C(=O)N(CCCNCCc1ccc(OC)c(OC)c1)C(=O)C2(C)C", "note": "[B, 1-[4,4-dimethyl-7-methoxy-1,3-dioxo-(2H,4H)-isoquinolin-2-yl]-3-[2-(3,4-dimethoxy-phenyl)-ethylamine]propane hydrochloride]", "values": [
      {"measurement": "Decrease of bloodpressure diast.", "setting": "[1]; 0.5 mg/kg i.v.", "result": -36, "unit": "mm Hg"},
      {"measurement": "Decrease of bloodpressure syst.", "setting": "[1]; 0.5 mg/kg i.v.", "result": -32, "unit": "mm Hg"},
      {"measurement": "Duration of activity", "setting": "[1]; 0.5 mg/kg i.v.", "result": 35, "unit": "min"},
      {"measurement": "Decrease of bloodpressure diast.", "setting": "[1]; 1.0 mg/kg i.v.", "result": -40, "unit": "mm Hg"},
      {"measurement": "Decrease of bloodpressure syst.", "setting": "[1]; 1.0 mg/kg i.v.", "result": -36, "unit": "mm Hg"},
      {"measurement": "Duration of activity", "setting": "[1]; 1.0 mg/kg i.v.", "result": 40, "unit": "min"},
      {"measurement": "LD50 at 336 h", "setting": "[2]", "result": 775, "unit": "mg/kg"}
    ]}
  ]
}
